Laboratory results published in US4508663A, “Process for preparing thiosulfenamide derivatives of N-phosphonomethylglycinonitriles” (Monsanto Company, priority 1983, dated 1985).

How the values were obtained:
Assay in all cases: post-emergence herbicidal activity, greenhouse
Assay type in all cases: in vivo
[1] = system: Barnyardgrass
From the text: (§1) A good grade of top soil is placed in aluminum pans having holes in the bottom and compacted to a depth of 0.95 to 1.27 cm. from the top of the pan. A predetermined number of seeds of each of several dicotyledonous and monocotyledonous annual plant species and/or vegetative propagules for the perennial plant species are placed on the soil and pressed into the soil surface. The seeds and/or vegetative propagules are covered with soil and leveled. The pans are then placed on a sand bench in the greenhouse and watered from below as needed. After the plants reach the desired age (two to three weeks), each pan except for the control pans is removed individually to a spraying chamber and sprayed by means of an atomizer operating at a positive air pressure of approximately 1.46 kg/cm^2 absolute. The atomizer contains 6 ml. of a solution or suspension of the chemical. In that 6 ml., is an amount of a cyclohexanone emulsifying agent mixture to give a spray solution or suspension which contains about 0.4% by weight of the emulsifier. The spray solution or suspension contains a sufficient amount of the candidate chemical in order to give application rates corresponding to those set forth in the tables. The spray solution is prepared by taking an aliquot of a 1.0% by weight stock solution or suspension of the candidate chemical in an organic solvent such as acetone or tetrahydrofuran or in water. The emulsifying agent employed is a mixture comprising 35 weight percent butylamine dodecylbenzene sulfonate and 65 weight percent of a tall oil ethylene oxide condensate having about 11 moles of ethylene oxide per mole of tall oil. The pans are returned to the greenhouse and watered as before and the injury to the plants as compared to the control is observed at approximately two and four weeks as indicated in the tables under WAT and the results recorded. In some instances, the two-week observations are omitted.
(§2) The post-emergence herbicidal activity index used in Table I is as follows: […]

[2] = system: Canada Thistle; conditions: Table I, 4 WAT
From the text: as §1, §2

[3] = system: Cocklebur
From the text: as §1, §2

[4] = system: Downy Brome
From the text: as §1, §2

[5] = system: Johnsongrass; conditions: Table I
From the text: as §1, §2

[6] = system: Lambsquarters
From the text: as §1, §2

[7] = system: Morningglory
From the text: as §1, §2

[8] = system: Quackgrass; conditions: Table I
From the text: as §1, §2

[9] = system: Smartweed
From the text: as §1, §2

[10] = system: Velvetleaf
From the text: as §1, §2

[11] = system: Yellow Nutsedge; conditions: Table I
From the text: as §1, §2

[12] = system: Crabgrass; conditions: Table II, 2 WAT
From the text: as §1, §2

[13] = system: Hemp Sesbania; conditions: Table II, 2 WAT
From the text: as §1, §2

[14] = system: Panicum Spp; conditions: Table II, 2 WAT
From the text: as §1, §2

[15] = system: Rice; conditions: Table II, 2 WAT
From the text: as §1, §2

[16] = system: Sorghum; conditions: Table II, 2 WAT
From the text: as §1, §2

[17] = system: Soybean; conditions: Table II, 2 WAT
From the text: as §1, §2

[18] = system: Sugar Beet; conditions: Table II, 2 WAT
From the text: as §1, §2

[19] = system: Wheat; conditions: Table II, 2 WAT
From the text: as §1, §2

[20] = system: Wild Buckwheat; conditions: Table II, 2 WAT
From the text: as §1, §2

Measured: post-emergence herbicidal activity index

CCCCCCCCSSN(CC#N)CP(=O)(Oc1ccccc1)Oc1ccccc1 [II, Phosphonic acid, [[(cyanomethyl)(octyldithio)-amino]methyl]-, diphenyl ester]
0 (0-24% control): [4]; Table I, 4 WAT, 11.2 kg/h | [8]; 4 WAT, 5.6 kg/h | [9]; Table I, 4 WAT, 5.6 kg/h
3 (75-99% control): [5]; 4 WAT, 5.6 kg/h | [6]; Table I, 4 WAT, 5.6 kg/h | [6]; Table I, 4 WAT, 11.2 kg/h
1 (25-49% control): [1]; Table I, 4 WAT, 5.6 kg/h | [2]; 5.6 kg/h | [2]; 11.2 kg/h | [4]; Table I, 4 WAT, 5.6 kg/h | [8]; 4 WAT, 11.2 kg/h | [9]; Table I, 4 WAT, 11.2 kg/h | [10]; Table I, 4 WAT, 5.6 kg/h | [10]; Table I, 4 WAT, 11.2 kg/h
2 (50-74% control): [1]; Table I, 4 WAT, 11.2 kg/h | [3]; Table I, 4 WAT, 5.6 kg/h | [3]; Table I, 4 WAT, 11.2 kg/h | [5]; 4 WAT, 11.2 kg/h | [7]; Table I, 4 WAT, 5.6 kg/h | [7]; Table I, 4 WAT, 11.2 kg/h | [11]; 4 WAT, 5.6 kg/h | [11]; 4 WAT, 11.2 kg/h

N#CCN(CP(=O)(Oc1ccccc1)Oc1ccccc1)SSc1ccc2ccccc2c1 [IX, Phosphonic acid, [[(cyanomethyl)(2-naphthalenyldithio)amino]methyl]-, diphenyl ester]
1 (25-49% control): [1]; Table I, 4 WAT, 11.2 kg/h | [1]; Table II, 2 WAT, 5.6 kg/h | [3]; Table I, 4 WAT, 11.2 kg/h | [3]; Table II, 2 WAT, 5.6 kg/h | [13]; 5.6 kg/h | [5]; 2 WAT, 5.6 kg/h | [5]; 4 WAT, 11.2 kg/h | [6]; Table I, 2 WAT, 5.6 kg/h | [7]; Table II, 2 WAT, 5.6 kg/h | [8]; 4 WAT, 11.2 kg/h | [9]; Table II, 2 WAT, 5.6 kg/h | [16]; 5.6 kg/h | [10]; Table I, 2 WAT, 5.6 kg/h | [10]; Table I, 4 WAT, 11.2 kg/h | [19]; 5.6 kg/h | [20]; 5.6 kg/h
2 (50-74% control): [12]; 5.6 kg/h
3 (75-99% control): [6]; Table I, 4 WAT, 11.2 kg/h | [6]; Table II, 2 WAT, 5.6 kg/h | [9]; Table I, 4 WAT, 11.2 kg/h
0 (0-24% control): [1]; Table I, 2 WAT, 5.6 kg/h | [1]; Table II, 2 WAT, 0.28 kg/h | [1]; Table II, 2 WAT, 1.12 kg/h | [3]; Table I, 2 WAT, 5.6 kg/h | [3]; Table II, 2 WAT, 0.28 kg/h | [3]; Table II, 2 WAT, 1.12 kg/h | [12]; 0.28 kg/h | [12]; 1.12 kg/h | [4]; Table I, 2 WAT, 5.6 kg/h | [4]; Table I, 4 WAT, 11.2 kg/h | [4]; Table II, 2 WAT, 0.28 kg/h | [4]; Table II, 2 WAT, 1.12 kg/h | [4]; Table II, 2 WAT, 5.6 kg/h | [13]; 0.28 kg/h | [13]; 1.12 kg/h | [6]; Table II, 2 WAT, 0.28 kg/h | [6]; Table II, 2 WAT, 1.12 kg/h | [7]; Table I, 2 WAT, 5.6 kg/h | [7]; Table I, 4 WAT, 11.2 kg/h | [7]; Table II, 2 WAT, 0.28 kg/h | [7]; Table II, 2 WAT, 1.12 kg/h | [14]; 0.28 kg/h | [14]; 1.12 kg/h | [14]; 5.6 kg/h | [8]; 2 WAT, 5.6 kg/h | [15]; 0.28 kg/h | [15]; 1.12 kg/h | [15]; 5.6 kg/h | [9]; Table I, 2 WAT, 5.6 kg/h | [9]; Table II, 2 WAT, 0.28 kg/h | [9]; Table II, 2 WAT, 1.12 kg/h | [16]; 0.28 kg/h | [16]; 1.12 kg/h | [17]; 0.28 kg/h | [17]; 1.12 kg/h | [17]; 5.6 kg/h | [18]; 0.28 kg/h | [18]; 1.12 kg/h | [18]; 5.6 kg/h | [10]; Table II, 2 WAT, 0.28 kg/h | [10]; Table II, 2 WAT, 1.12 kg/h | [10]; Table II, 2 WAT, 5.6 kg/h | [19]; 0.28 kg/h | [19]; 1.12 kg/h | [20]; 0.28 kg/h | [20]; 1.12 kg/h | [11]; 2 WAT, 5.6 kg/h | [11]; 4 WAT, 11.2 kg/h
